# Measured values reported in patent publication US5672597A, “Acetamide derivative” (Kaken Pharmaceutical Co., Ltd., priority 1992, dated 1997).
# Key:
# [1] = test system: ulcer induced by pylorus-ligation; experiment: Test of ulcer induced by pylorus-ligation; format: in vivo, wistar male rat; settings: 14 h; rat, 100 mg/kg, in the duodenum immediately after ligating the pylorus; hydrochloride salts; read-out: Percentage of inhibition of ulcer formation
# Method: (§1) With respect to anti-ulcer effect of the compounds having the general formula (I), there were carried out a test of ulcer induced by pylorus-ligation, which ulcer is induced mainly due to offensive factors; a test of ulcer induced by hydrochloric acid/ethanol, which ulcer is induced mainly due to defensive factors such as mucosal blood flow and mucus; and a test of ulcer induced by a stress of restraint plus water-immersion, which ulcer is induced due to both of offensive and defensive factors. Further, there were carried out a test of ulcer induced by acetic acid as a chronic ulcer model and a test of cure-prolonged ulcer induced by acetic acid. Also, there was examined an activity of increasing gastric mucosal blood flow, which activity brings about acceleration of regeneration of the gastric mucosa. As test compounds, hydrochloride salts were used.
# The pylorus of a wistar male rat weighing 230 to 250 g, which had fasted for 48 hours, was ligated under ether-anesthesia, according to a usual method. After 14 hours, the animal was sacrificed by ether and the stomach was taken out therefrom.
# The area of the ulcer generated on the fore-stomach was measured and the total area of the ulcer per rat was classified into the following six grades to give ulcer coefficients (Table 4).
# Each of them was suspended in 0.5% methylcellulose solution and administered in the duodenum immediately after ligating the pylorus, in a dose of 100 mg/kg (body weight), respectively. To control group, only the medium for the medicament solution was administered in an amount of 0.25 ml/100 g (body weight).
# The obtained results were subjected to the following formula to calculate a percentage of inhibition of ulcer formation. Six rats were used in each group for the test: [formula]
# [2] = test system: cure-prolonged ulcer induced by acetic acid; experiment: Test of cure-prolonged ulcer induced by acetic acid; format: in vivo, wistar male rat; settings: rat, 50 mg/kg oral, twice a day; cure prolonged with indomethacin 1 mg/kg s.c. for 13 days
# Method: as §1
# Into the junction of the glandular stomach and the antrum, of a wistar male rat weighing 220 to 240 g, was injected subserosally 30 μl of 20% acetic acid to generate an ulcer induced by acetic acid. From 2 days after the generation of the ulcer, indomethacin was injected subcutaneously in the regions of back of the rat in a dose of 1 mg/kg, once a day for 13 days to prolong the cure of the ulcer induced by acetic acid.
# Each of them was suspended in 0.5% methylcellulose solution, and administered orally in a dose of 50 mg/kg, twice a day (in the morning and in the evening) from 13 days, respectively. The animal was sacrificed by ether on the day after the last administration, and the stomach was taken out therefrom. The area of the ulcer was measured. The obtained results were subjected to the following formula to calculate a percentage of improvement for curing ulcer. To control group, only the medium for the medicament solution was administered in an amount of 0.5 ml/100 g (body weight). Twenty rats were used in each group for the test. [formula]
# [3] = test system: gastric mucosal blood flow; experiment: Activity of increasing gastric mucosal blood flow; format: in vivo, wistar male rat; settings: rat, urethane-anesthesia, 220 μg/kg intravenous, 60 minutes after administration
# Method: as §1
# An amount of the mucosal blood flow in the body of the stomach of a wistar male rat weighing 220 to 240 g under urethane-anesthesia was measured by means of a laser doppler blood flow meter. As test compounds, there were used the compound of the present invention and, as comparative compound, FRG-8813. Each of them was intravenously administered in a dose of 220 μg/kg. A percentage of increase of the blood flow was calculated 60 minutes after the administration. Five rats were used for each group for the test.
# [4] = test system: ulcer induced by acetic acid; experiment: Test of ulcer induced by acetic acid; format: in vivo, wistar male rat; settings: rat, 15 mg/kg oral, twice a day from 2 days after generation of the ulcer
# Method: as §1
# Into the junction of the glandular stomach and the antrum, of a wistar male rat weighing 220 to 240 g, was injected subserosally […] of 20% acetic acid to generate an ulcer induced by acetic acid. […] Each of them was suspended in 0.5% methylcellulose solution, and administered orally in a dose of 15 mg/kg, twice a day (in the morning and in the evening) from 2 days after the generation of the ulcer for days, respectively. The animal was sacrificed by ether on the day after the last administration, and the stomach was taken out therefrom. The area of the ulcer was measured.
# The obtained results were subjected to the following formula to calculate a percentage of improvement for curing ulcer. To control group, only the medium for the medicament solution was administered in an amount of 0.5 ml/100 g (body weight). Twenty rats were used in each group for the test. [formula]
# [5] = test system: ulcer induced by hydrochloric acid/ethanol; experiment: Test of ulcer induced by hydrochloric acid/ethanol; format: in vivo, wistar male rat; settings: 1 h; rat, 30 mg/kg oral, 30 minutes before hydrochloric acid/ethanol; hydrochloride salts; read-out: Percentage of inhibition of ulcer formation
# Method: as §1
# To a wistar male rat weighing 220 to 240 g, which had fasted and thirsted for 24 hours, was orally administered 150 mM hydrochloric acid/70% ethanol solution in an amount of 5 ml/kg (body weight). After 1 hour, the animal was sacrificed by dislocating the cervical vertebrae and the stomach was taken out therefrom. The length of the ulcer generated on the glandular stomach was measured and the total thereof was regarded as the ulcer coefficient (mm).
# To control group, only the medium for the medicament solution was orally administered in an amount of […] (body weight), 30 minutes before the administration of hydrochloric acid/ethanol.
# (§2) The obtained results were subjected to the same formula as in the test of ulcer induced by pylorus-ligation, to calculate a percentage of inhibition of ulcer formation. Six rats were used in each group for the test.
# [6] = test system: ulcer induced by a stress of restraint plus water-immersion; experiment: Test of ulcer induced by a stress of restraint plus water-immersion; format: in vivo, ddY male mouse; settings: 7 h; mouse, 30 mg/kg oral, 15 minutes before the load of the stress; hydrochloride salts; read-out: Percentage of inhibition of ulcer formation
# Method: as §1
# A ddY male mouse weighing 20 to 25 g, which had fasted for 18 hours, was put into a stress cage, and was loaded with a stress by immersing it in a water tank at 23° C., to a level of a xiphoid. After 7 hours, the animal was sacrificed by dislocating the cervical vertebrae and the stomach was taken out therefrom. The length of the ulcer generated on the glandular stomach was measured and the total thereof was regarded as the ulcer coefficient (mm).
# To control group, only the medium for the medicament solution was orally administered in an amount of 0.1 ml/10 g (body weight) 15 minutes before the load of the stress.
# as §2
SMILES,inhibition in vivo at 100 mg/kg [1],Percentage of improvement for curing ulcer [2],Percentage of increase of blood flow [3],Percentage of improvement for curing ulcer [4],inhibition in vivo at 30 mg/kg [5],inhibition in vivo at 30 mg/kg [6]
"CCOC(=O)NCC[S+]([O-])CC(=O)NC/C=C\COc1cccc(CN2CCCCC2)c1 (stereo not drawn) [Example 75, N-[4-[3-(piperidinomethyl)phenoxy]-cis-2-butenyl]-2-[2-(ethoxycarbonylamino)ethylsulfinyl]acetamide]",96%,49%,15%,24%,82%,87%
"O=C(C[S+]([O-])Cc1ccco1)NC/C=C\COc1cc(CN2CCCCC2)ccn1 (stereo not drawn) [FRG-8813, reference compound]",27%,-5%,3%,12%,70%,85%
